Experimental findings from patent US6730665B1, “Treatment of bone cancer” (Mayo Foundation for Medical Education and Research, priority 1999, dated 2004) are described below.

Test [1] relates to MG63 human osteosarcoma cells. As to the kind of experiment: Cell survival, viable cell count with trypan blue. The format is cell-based. Particulars: for cell survival: 20 and 50 μM. The procedure:
(§1) MG63 and TE85 human osteosarcoma cells, and ROS 17/2.8 rat osteosarcoma cells were grown in DMEM/F12 phenol-red free medium containing 10% charcoal-stripped fetal bovine serum (FBS) and supplemented with 100 units/ml penicillin, 100 μg/ml streptomycin. Cell were incubated at 37° C. under 5% CO2 in air. Cells were plated at 5×10^4 cells per well into 24 well plates containing 1 ml of medium per well. After allowing the cells to attach overnight, media in the wells were replaced with fresh 1 ml medium. Human fetal osteoblasts (hFOB) cells and hFOB cells overexpressing estrogen receptor-alpha (hFOB-ERα) and estrogen receptor-beta (hFOB-ERβ) were grown in DMEM/F12 medium containing FBS, penicillin, streptomycin and Geneticin (300 μg/mL). The laboratory of Dr. B. L. Riggs at Mayo Clinic provided primary human osteoblast (HOB) cells. HOB cells were basically established from cancellous bone obtained as waste from orthopedic procedures and cultured as explants to generate the osteoblast-like monolayers as described by Borke et al., J. Clin. Endocrinol. Metab., 1988, 67:1299-1304. Human FOB cells and hFOB cells stably transfected with estrogen receptors (ERs) were maintained at 34° C., while all other cells were incubated at 37° C. under 5% CO2 in air.
(§2) Estrogen metabolites were diluted 1000 fold to give the final required concentrations in each well, and maintained for 72 hrs. The metabolites 2ME, 2OHE, and E2 were purchased from Sigma Chemical Company (St. Louis, Mo.). Stock solutions for each metabolite were made in 95% ethanol. Cell growth was measured by taking the viable cell count. At the end of metabolite treatment, cells were harvested, stained with trypan blue, and counted under a light microscope.
MG63 cells were treated with 0, 2, and 10 μM concentrations of 2ME in the presence or absence of 100 nM ICI for 72 hours. The cells were harvested and the viable cell counts were taken after staining with trypan blue.

Test [2] concerns osteosarcoma cells and immortalized cell lines. As to the kind of experiment: Cell survival, summary statement. Particulars: for impact on cell survival (in words): 2 μM, 72 hours; for reduction of cell survival: 20 μM. The format is cell-based. The procedure:
as §1, §2

Consider `C[C@]12CC[C@@H]3c4ccc(O)cc4C[C@@H](CCCCCCCCC[S+]([O-])CCCC(F)(F)C(F)(F)F)[C@H]3[C@@H]1CC[C@@H]2O` (stereo partly shown) [ICI], for which the “impact on cell survival (in words)” value in test [1] (100 nM ICI alone, 72 hours) is “little impact”.
For the compound `C[C@]12CC[C@@H]3c4cc(O)c(O)cc4CC[C@H]3[C@@H]1CC[C@@H]2O` [2OHE, 2-hydroxyestradiol], the “impact on cell survival (in words)” value in test [1] (2 μM, 72 hrs) is on record as “little impact”. In addition, in test [1] (72 hrs), the cell survival result is on record as “about 40%”. In test [2], the “impact on cell survival (in words)” value is listed as “minimal impact” and the “reduction of cell survival” value came to 60%.
The corresponding values for `C[C@]12CC[C@@H]3c4ccc(O)cc4CC[C@H]3[C@@H]1CC[C@@H]2O` [E2, 17β-estradiol] are “little impact”, approximately 50%, “minimal impact” and 50%.
With `COc1cc2c(cc1O)CC[C@@H]1[C@@H]2CC[C@]2(C)C(=O)CC[C@@H]12` [2-methoxyestrone], the “impact on cell survival (in words)” value in test [2] is recorded as “minimal impact”.
